# Laboratory results from patent US20240190880A1 (THE REGENTS OF THE UNIVERSITY OF MICHIGAN, priority 2021, published 2024).
# Molecular target: T1, ER (Homo sapiens, UniProt P03372)
# T1 construct: host or cells: T47D and MCF7 human breast cancer cells
# T1 sequence (P03372 1-595): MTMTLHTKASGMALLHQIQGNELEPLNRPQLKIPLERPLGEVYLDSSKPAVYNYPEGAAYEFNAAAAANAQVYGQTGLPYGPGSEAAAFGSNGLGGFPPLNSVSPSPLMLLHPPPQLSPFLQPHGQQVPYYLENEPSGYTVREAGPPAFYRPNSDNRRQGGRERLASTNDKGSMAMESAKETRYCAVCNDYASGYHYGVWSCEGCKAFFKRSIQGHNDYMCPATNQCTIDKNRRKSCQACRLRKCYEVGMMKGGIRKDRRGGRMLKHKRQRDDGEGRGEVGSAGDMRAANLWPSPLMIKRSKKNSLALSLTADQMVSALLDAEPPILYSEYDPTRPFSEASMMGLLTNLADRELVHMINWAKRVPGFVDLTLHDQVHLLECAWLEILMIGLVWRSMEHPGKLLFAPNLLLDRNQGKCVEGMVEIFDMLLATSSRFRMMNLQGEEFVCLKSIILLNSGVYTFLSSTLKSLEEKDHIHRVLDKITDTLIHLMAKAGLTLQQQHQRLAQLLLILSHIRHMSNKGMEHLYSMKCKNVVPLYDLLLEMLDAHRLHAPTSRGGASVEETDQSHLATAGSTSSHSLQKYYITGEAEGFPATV
# Experiment: ER degradation activity, in-cell western blot analysis in T47D cells
# Type: cell-based
# Conditions: compounds 16 hours, Table A does not say whether T47D or MCF7, read-out: Potency (DC50)
# Summary of the method: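 Human T47D cells (DMEM, 10% FBS) are dosed for 16 h with 0.5% DMSO final and probed with 680- and 800-dye secondary antibodies. Relative ER is calculated against vehicle and untreated wells.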
row,SMILES,DC50 [nM]
1,"O=C1CCC(N2C(=O)c3cc4c(cc3C2=O)CN(CC(=O)N2CCC3(CC2)CN(C(=O)c2ccc([C@@H]5c6ccc(O)cc6CC[C@@H]5c5ccccc5)cc2)C3)C4)C(=O)N1 (stereo partly drawn) [E 496, 2-(2,6-dioxopiperidin-3-yl)-6-(2-(2-(4-((1R,2S)-6-hydroxy-2-phenyl-1,2,3,4-tetrahydronaphthalen-1-yl)benzoyl)-2,7-diazaspiro[3.5]nonan-7-yl)-2-oxoethyl)-6,7-dihydropyrrolo[3,4-f]isoindole-1,3(2H,5H)-dione]",> 100
2,"O=C1CCC(N2C(=O)c3cc4c(cc3C2=O)CN(C2CC3CCC(C2)N3CC2CCN(c3ccc([C@@H]5c6ccc(O)cc6CC[C@@H]5c5ccccc5)cc3)CC2)C4)C(=O)N1 (stereo partly drawn) [E 497, 2-(2,6-dioxopiperidin-3-yl)-6-(8-((1-(4-((1R,2S)-6-hydroxy-2-phenyl-1,2,3,4-tetrahydronaphthalen-1-yl)phenyl)piperidin-4-yl)methyl)-8-azabicyclo[3.2.1]octan-3-yl)-6,7-dihydropyrrolo[3,4-f]isoindole-1,3(2H,5H)-dione]",> 100
3,"O=C1CCC(N2C(=O)c3cc4c(cc3C2=O)CC2(C4)CN(CC3CCN(c4ccc([C@@H]5c6ccc(O)cc6CC[C@@H]5c5ccccc5)cc4)CC3)C2)C(=O)N1 (stereo partly drawn) [E 500, 2′-(2,6-dioxopiperidin-3-yl)-1-((1-(4-((1R,2S)-6-hydroxy-2-phenyl-1,2,3,4-tetrahydronaphthalen-1-yl)phenyl)piperidin-4-yl)methyl)-5′,7′-dihydro-1′H-spiro[azetidine-3,6′-cyclopenta[f]isoindole]-1′,3′(2′H)-dione]",> 100
4,"O=C1CCC(N2C(=O)c3cc4c(cc3C2=O)CC2(C4)CN(C(=O)C3CCN(c4ccc([C@@H]5c6ccc(O)cc6CC[C@@H]5c5ccccc5)cc4)CC3)C2)C(=O)N1 (stereo partly drawn) [E 501, 2′-(2,6-dioxopiperidin-3-yl)-1-(1-(4-((1R,2S)-6-hydroxy-2-phenyl-1,2,3,4-tetrahydronaphthalen-1-yl)phenyl)piperidine-4-carbonyl)-5′,7′-dihydro-1′H-spiro[azetidine-3,6′-cyclopenta[f]isoindole]-1′,3′(2′H)-dione]",> 100
5,"O=C1CCC(N2C(=O)c3cc4c(cc3C2=O)CC2(C4)CN(C(=O)CN3CC(Oc4ccc([C@@H]5c6ccc(O)cc6CC[C@@H]5c5ccccc5)cc4)C3)C2)C(=O)N1 (stereo partly drawn) [E 502, 2′-(2,6-dioxopiperidin-3-yl)-1-(2-(3-(4-((1R,2S)-6-hydroxy-2-phenyl-1,2,3,4-tetrahydronaphthalen-1-yl)phenoxy)azetidin-1-yl)acetyl)-5′,7′-dihydro-1′H-spiro[azetidine-3,6′-cyclopenta[f]isoindole]-1′,3′(2′H)-dione]",> 100
6,"O=C1CCC(N2C(=O)c3cc4c(cc3C2=O)CC2(C4)CN(CC(=O)N3CC(Oc4ccc([C@@H]5c6ccc(O)cc6CC[C@@H]5c5ccccc5)cc4)C3)C2)C(=O)N1 (stereo partly drawn) [E 503, 2′-(2,6-dioxopiperidin-3-yl)-1-(2-(3-(4-((1R,2S)-6-hydroxy-2-phenyl-1,2,3,4-tetrahydronaphthalen-1-yl)phenoxy)azetidin-1-yl)-2-oxoethyl)-5′,7′-dihydro-1′H-spiro[azetidine-3,6′-cyclopenta[f]isoindole]-1′,3′(2′H)-dione]",> 100
7,"O=C1CCC(N2Cc3cc4c(cc3C2=O)CN(CC2CN(CC3CCN(c5ccc([C@@H]6c7ccc(O)cc7CC[C@@H]6c6ccccc6)cc5)CC3)C2)C4=O)C(=O)N1 (stereo partly drawn) [E 504, 2-(2,6-dioxopiperidin-3-yl)-6-((1-((1-(4-((1R,2S)-6-hydroxy-2-phenyl-1,2,3,4-tetrahydronaphthalen-1-yl)phenyl)piperidin-4-yl)methyl)azetidin-3-yl)methyl)-2,3,6,7-tetrahydropyrrolo[3,4-f]isoindole-1,5-dione]",> 100
8,"O=C1CCC(N2Cc3cc4c(cc3C2=O)CN(C2CN(CC3CCN(c5ccc([C@@H]6c7ccc(O)cc7CC[C@@H]6c6ccccc6)cc5)CC3)C2)C4=O)C(=O)N1 (stereo partly drawn) [E 505, 2-(2,6-dioxopiperidin-3-yl)-6-(1-((1-(4-((1R,2S)-6-hydroxy-2-phenyl-1,2,3,4-tetrahydronaphthalen-1-yl)phenyl)piperidin-4-yl)methyl)azetidin-3-yl)-2,3,6,7-tetrahydropyrrolo[3,4-f]isoindole-1,5-dione]",> 100
9,"O=C1CCC(N2Cc3cc4c(cc3C2=O)CN(C2CCN(CC3CCN(c5ccc([C@@H]6c7ccc(O)cc7CC[C@@H]6c6ccccc6)cc5)CC3)CC2)C4=O)C(=O)N1 (stereo partly drawn) [E 506, 2-(2,6-dioxopiperidin-3-yl)-6-(1-((1-(4-((1R,2S)-6-hydroxy-2-phenyl-1,2,3,4-tetrahydronaphthalen-1-yl)phenyl)piperidin-4-yl)methyl)piperidin-4-yl)-2,3,6,7-tetrahydropyrrolo[3,4-f]isoindole-1,5-dione]",> 100
10,"O=C1CCC(N2Cc3cc4c(cc3C2=O)C(=O)N(C2CCN(CC3CCN(c5ccc([C@@H]6c7ccc(O)cc7CC[C@@H]6c6ccccc6)cc5)CC3)CC2)C4)C(=O)N1 (stereo partly drawn) [E 507, 2-(2,6-dioxopiperidin-3-yl)-6-(1-((1-(4-((1R,2S)-6-hydroxy-2-phenyl-1,2,3,4-tetrahydronaphthalen-1-yl)phenyl)piperidin-4-yl)methyl)piperidin-4-yl)-2,3,5,6-tetrahydropyrrolo[3,4-f]isoindole-1,7-dione]",> 100
11,"O=C1CCC(N2Cc3cc4c(cc3C2=O)C(=O)N(CC2CN(CC3CCN(c5ccc([C@@H]6c7ccc(O)cc7CC[C@@H]6c6ccccc6)cc5)CC3)C2)C4)C(=O)N1 (stereo partly drawn) [E 508, 2-(2,6-dioxopiperidin-3-yl)-6-((1-((1-(4-((1R,2S)-6-hydroxy-2-phenyl-1,2,3,4-tetrahydronaphthalen-1-yl)phenyl)piperidin-4-yl)methyl)azetidin-3-yl)methyl)-2,3,5,6-tetrahydropyrrolo[3,4-f]isoindole-1,7-dione]",> 100

# The next lines start with the values.
row,DC50 [nM],SMILES
1,10 to 100,"C[C@@H]1Cc2cc(O)ccc2[C@@H](c2c(F)cc(C3CCC(C(=O)N4CCC(N5Cc6cc7c(cc6C5)C(=O)N(C5CCC(=O)NC5=O)C7=O)CC4)CC3)cc2F)N1CC(F)F (stereo partly drawn) [E 487, 6-(1-(4-(4-((1S,3R)-2-(2,2-difluoroethyl)-6-hydroxy-3-methyl-1,2,3,4-tetrahydroisoquinolin-1-yl)-3,5-difluorophenyl)cyclohexane-1-carbonyl)piperidin-4-yl)-2-(2,6-dioxopiperidin-3-yl)-6,7-dihydropyrrolo[3,4-f]isoindole-1,3(2H,5H)-dione]"
2,10 to 100,"O=C1CCC(N2C(=O)c3cc4c(cc3C2=O)CN(CC(=O)N2CCC(Oc3ccc([C@@H]5c6ccc(O)cc6CC[C@@H]5c5ccccc5)cc3)CC2)C4)C(=O)N1 (stereo partly drawn) [E 489, 2-(2,6-dioxopiperidin-3-yl)-6-(2-(4-(4-((1R,2S)-6-hydroxy-2-phenyl-1,2,3,4-tetrahydronaphthalen-1-yl)phenoxy)piperidin-1-yl)-2-oxoethyl)-6,7-dihydropyrrolo[3,4-f]isoindole-1,3(2H,5H)-dione]"
3,> 100,"O=C1CCC(N2C(=O)c3cc4c(cc3C2=O)CN(CC2CCC3(CC2)CCN(C(=O)c2ccc([C@@H]5c6ccc(O)cc6CC[C@@H]5c5ccccc5)cc2)CC3)C4)C(=O)N1 (stereo partly drawn) [E 492, 2-(2,6-dioxopiperidin-3-yl)-6-((3-(4-((1R,2S)-6-hydroxy-2-phenyl-1,2,3,4-tetrahydronaphthalen-1-yl)benzoyl)-3-azaspiro[5.5]undecan-9-yl)methyl)-6,7-dihydropyrrolo[3,4-f]isoindole-1,3(2H,5H)-dione]"
4,> 100,"O=C1CCC(N2C(=O)c3cc4c(cc3C2=O)CN(CC2CCC3(CC2)CN(C(=O)c2ccc([C@@H]5c6ccc(O)cc6CC[C@@H]5c5ccccc5)cc2)C3)C4)C(=O)N1 (stereo partly drawn) [E 493, 2-(2,6-dioxopiperidin-3-yl)-6-((2-(4-((1R,2S)-6-hydroxy-2-phenyl-1,2,3,4-tetrahydronaphthalen-1-yl)benzoyl)-2-azaspiro[3.5]nonan-7-yl)methyl)-6,7-dihydropyrrolo[3,4-f]isoindole-1,3(2H,5H)-dione]"
5,> 100,"O=C1CCC(N2C(=O)c3cc4c(cc3C2=O)CN(CC2CC3(CCN(C(=O)c5ccc([C@@H]6c7ccc(O)cc7CC[C@@H]6c6ccccc6)cc5)CC3)C2)C4)C(=O)N1 (stereo partly drawn) [E 494, 2-(2,6-dioxopiperidin-3-yl)-6-((7-(4-((1R,2S)-6-hydroxy-2-phenyl-1,2,3,4-tetrahydronaphthalen-1-yl)benzoyl)-7-azaspiro[3.5]nonan-2-yl)methyl)-6,7-dihydropyrrolo[3,4-f]isoindole-1,3(2H,5H)-dione]"
6,> 100,"O=C1CCC(N2C(=O)c3cc4c(cc3C2=O)CN(CC(=O)N2CCC3(CC2)CCN(C(=O)c2ccc([C@@H]5c6ccc(O)cc6CC[C@@H]5c5ccccc5)cc2)CC3)C4)C(=O)N1 (stereo partly drawn) [E 495, 2-(2,6-dioxopiperidin-3-yl)-6-(2-(9-(4-((1R,2S)-6-hydroxy-2-phenyl-1,2,3,4-tetrahydronaphthalen-1-yl)benzoyl)-3,9-diazaspiro[5.5]undecan-3-yl)-2-oxoethyl)-6,7-dihydropyrrolo[3,4-f]isoindole-1,3(2H,5H)-dione]"
